Bridge positions count the residues as written; N and C are the ends. Square brackets hold non-standard residues; d marks the D form. Peptide text beside a SMILES is read from it. R8 = C=CCCCCCC[C@@](C)(N)C(=O)O; S5 = C=CCCC[C@](C)(N)C(=O)O; Nle = CCCC[C@H](N)C(=O)O; Dap = NC[C@H](N)C(=O)O
Test system: HRE-bla ME-180 cells
Assay: Reporter gene assay (HRE-bla ME-180 HIF reporter, GeneBLAzer)
Assay type: cell-based, human
Details: for EC50: 24 hour normoxia
Procedure, shortened: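 A FRET β-lactamase readout of HIF transcription was used. After compound treatment in 0.3% DMSO/media under normoxic conditions, 20 μl of 6× LiveBLAzer-FRET B/G (CCF4-AM) substrate was added. Plates sat 3 hr at room temperature in the dark and were read at 409 Ex/460Em and 409Ex/530Em on a Synergy 2. Inhibition was compared against DMSO vehicle controls, with chetomin as positive control.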

EC50 [µM] | SMILES | 18 h Avg % max inhibition at top conc (HIF Rptr-24 hrs normoxia) (μM)
> 30 | CCCC[C@H](NC(=O)[C@H](CCC(=O)O)NC(=O)[C@@H](NC(=O)[C@H](CCC(=O)O)NC(=O)[C@H](CCC(=O)O)NC(=O)[C@H](CC(=O)O)NC(=O)[C@@H](NC(=O)[C@H](Cc1ccccc1)NC(C)=O)[C@@H](C)CC)C(C)C)C(=O)N[C@@]1(C)CCCC=CCCC[C@@](C)(C(=O)N[C@@H](CCCC)C(=O)N[C@@H](C)C(=O)N[C@@H](CC(C)C)C(=O)N[C@@H](CC(=O)O)C(=O)N[C@@H](CCCNC(=N)N)C(=O)N[C@H](C(N)=O)[C@@H](C)CC)NC(=O)[C@H]([C@@H](C)CC)NC(=O)[C@H](C(C)C)NC(=O)[C@H](CC(C)C)NC1=O [SP-33] (Ac-FIDEEVE[Nle][S5]LVI[S5][Nle]ALDRI-NH2; staple 9-13) | +++ (≤25 but <50: +++)
5 to 15 | CCCC[C@H](NC(=O)[C@H](CC(C)C)NC(=O)[C@@H](NC(=O)[C@H](C)NC(=O)[C@H](CCC(=O)O)NC(=O)[C@H](CC(=O)O)NC(=O)[C@@H](NC(=O)[C@H](Cc1ccccc1)NC(C)=O)[C@@H](C)CC)C(C)C)C(=O)N[C@@]1(C)CCCC=CCCC[C@@](C)(C(=O)N[C@@H](CCCC)C(=O)N[C@@H](C)C(=O)N[C@@H](CC(C)C)C(=O)N[C@@H](CC(=O)O)C(=O)N[C@@H](CCCNC(=N)N)C(=O)N[C@H](C(N)=O)[C@@H](C)CC)NC(=O)[C@H]([C@@H](C)CC)NC(=O)[C@H](C(C)C)NC(=O)[C@H](CC(C)C)NC1=O [SP-13] (Ac-FIDEAVL[Nle][S5]LVI[S5][Nle]ALDRI-NH2; staple 9-13) | ++++ (≥50: ++++)
5 to 15 | CCCC[C@H](NC(=O)[C@H](CC(C)C)NC(=O)[C@@H](NC(=O)[C@H](CCC(=O)O)NC(=O)[C@H](CCC(=O)O)NC(=O)[C@H](CC(=O)O)NC(=O)[C@@H](NC(=O)[C@H](Cc1ccccc1)NC(C)=O)[C@@H](C)CC)C(C)C)C(=O)N[C@@]1(C)CCCC=CCCC[C@@](C)(C(=O)N[C@@H](CCCC)C(=O)N[C@@H](C)C(=O)N[C@@H](CC(C)C)C(=O)N[C@@H](CC(=O)O)C(=O)N[C@@H](CCCNC(=N)N)C(=O)N[C@@H](C)C(N)=O)NC(=O)[C@H]([C@@H](C)CC)NC(=O)[C@H](C(C)C)NC(=O)[C@H](CC(C)C)NC1=O [SP-25] (Ac-FIDEEVL[Nle][S5]LVI[S5][Nle]ALDRA-NH2; staple 9-13) | +++ (≤25 but <50: +++)
5 to 15 | CCCC[C@H](NC(=O)[C@H](CC(C)C)NC(=O)[C@@H](NC(=O)[C@H](CCC(=O)O)NC(=O)[C@H](CCC(=O)O)NC(=O)[C@H](CC(=O)O)NC(=O)[C@@H](NC(=O)[C@H](Cc1ccccc1)NC(C)=O)[C@@H](C)CC)C(C)C)C(=O)N[C@@]1(C)CCCC=CCCC[C@@](C)(C(=O)N[C@@H](CCCC)C(=O)N[C@@H](C)C(=O)N[C@@H](CC(C)C)C(=O)N[C@@H](CC(=O)O)C(=O)N[C@@H](C)C(=O)N[C@H](C(N)=O)[C@@H](C)CC)NC(=O)[C@H]([C@@H](C)CC)NC(=O)[C@H](C(C)C)NC(=O)[C@H](CC(C)C)NC1=O [SP-24] (Ac-FIDEEVL[Nle][S5]LVI[S5][Nle]ALDAI-NH2; staple 9-13) | ++++ (≥50: ++++)
> 30 | CCCC[C@H](NC(=O)[C@H](CC(C)C)NC(=O)[C@H](CN)NC(=O)[C@H](CCC(=O)O)NC(=O)[C@H](CCC(=O)O)NC(=O)[C@H](CC(=O)O)NC(=O)[C@@H](NC(=O)[C@H](Cc1ccccc1)NC(C)=O)[C@@H](C)CC)C(=O)N[C@@]1(C)CCCC=CCCC[C@@](C)(C(=O)N[C@@H](CCCC)C(=O)N[C@@H](C)C(=O)N[C@@H](CC(C)C)C(=O)N[C@@H](CC(=O)O)C(=O)N[C@@H](CCCNC(=N)N)C(=O)N[C@H](C(N)=O)[C@@H](C)CC)NC(=O)[C@H]([C@@H](C)CC)NC(=O)[C@H](C(C)C)NC(=O)[C@H](CC(C)C)NC1=O [SP-64] (Ac-FIDEE[Dap]L[Nle][S5]LVI[S5][Nle]ALDRI-NH2; staple 9-13) | + (<10: +)
5 to 15 | CCCC[C@H](NC(=O)[C@H](CC(C)C)NC(=O)[C@@H](NC(=O)[C@H](CCC(=O)O)NC(=O)[C@H](CCC(=O)O)NC(=O)[C@H](CC(=O)O)NC(=O)[C@@H](NC(=O)[C@H](Cc1ccccc1)NC(C)=O)[C@@H](C)CC)C(C)C)C(=O)N[C@@]1(C)CCCC=CCCC[C@@](C)(C(=O)N[C@@H](CCCC)C(=O)N[C@@H](C)C(=O)N[C@@H](CC(C)C)C(=O)N[C@@H](CC(=O)O)C(=O)N[C@@H](CCCNC(=N)N)C(=O)N[C@H](C(N)=O)[C@@H](C)CC)NC(=O)[C@H](C)NC(=O)[C@H](C(C)C)NC(=O)[C@H](CC(C)C)NC1=O [SP-19] (Ac-FIDEEVL[Nle][S5]LVA[S5][Nle]ALDRI-NH2; staple 9-13) | +++ (≤25 but <50: +++)
15 to 30 | CC[C@H](C)[C@H](NC(=O)[C@H](Cc1ccccc1)NC(C)=O)C(=O)N[C@@H](CC(=O)O)C(=O)N[C@@H](CCC(=O)O)C(=O)N[C@@H](CCC(=O)O)C(=O)N[C@H](C(=O)N[C@@H](CC(C)C)C(=O)N[C@@H](C)C(=O)N[C@@]1(C)CCCC=CCCC[C@@](C)(C(=O)N[C@@H](C)C(=O)N[C@@H](C)C(=O)N[C@@H](CC(C)C)C(=O)N[C@@H](CC(=O)O)C(=O)N[C@@H](CCCNC(=N)N)C(N)=O)NC(=O)[C@H]([C@@H](C)CC)NC(=O)[C@H](C(C)C)NC(=O)[C@H](CC(C)C)NC1=O)C(C)C [SP-28] (Ac-FIDEEVLA[S5]LVI[S5]AALDR-NH2; staple 9-13) | ++++ (≥50: ++++)

The next lines start with the molecule.

SMILES | EC50 [µM] | 18 h Avg % max inhibition at top conc (HIF Rptr-24 hrs normoxia) (μM)
CC[C@H](C)[C@H](NC(=O)[C@H](CCCNC(=N)N)NC(=O)[C@H](CC(=O)O)NC(=O)[C@H](CC(C)C)NC(=O)[C@H](C)NC(=O)[C@H](C)NC(=O)[C@]1(C)CCCC=CCCC[C@](C)(NC(=O)[C@H](C)NC(=O)[C@H](CC(C)C)NC(=O)[C@@H](NC(=O)[C@H](CCC(N)=O)NC(=O)[C@H](CCC(=O)O)NC(=O)[C@H](CC(=O)O)NC(=O)[C@@H](NC(=O)[C@H](Cc2ccccc2)NC(C)=O)[C@@H](C)CC)C(C)C)C(=O)N[C@@H](CC(C)C)C(=O)N[C@@H](C(C)C)C(=O)N[C@@H]([C@@H](C)CC)C(=O)N1)C(N)=O [SP-70] (Ac-FIDEQVLA[S5]LVI[S5]AALDRI-NH2; staple 9-13) | 5 to 15 | +++ (≤25 but <50: +++)
CCCC[C@H](NC(=O)[C@H](CCC(=O)O)NC(=O)[C@@H](NC(=O)[C@@H](NC(=O)[C@H](CC(C)C)NC(=O)[C@]1(C)CCCC=CCCC[C@](C)(NC(=O)[C@H](CCC(=O)O)NC(=O)[C@H](CC(=O)O)NC(=O)[C@@H](NC(=O)[C@H](Cc2ccccc2)NC(C)=O)[C@@H](C)CC)C(=O)N[C@@H](C(C)C)C(=O)N[C@@H](CC(C)C)C(=O)N[C@@H](CCCC)C(=O)N1)C(C)C)[C@@H](C)CC)C(=O)N[C@@H](C)C(=O)N[C@@H](CC(C)C)C(=O)N[C@@H](CC(=O)O)C(=O)N[C@@H](CCCNC(=N)N)C(=O)N[C@H](C(=O)N[C@@H](CCCCN)C(=O)N[C@@H](CCC(=O)O)C(=O)N[C@@H](CC(C)C)C(=O)N1CCC[C@H]1C(=O)N[C@@H](CCC(=O)O)C(=O)N[C@@H](CC(C)C)C(=O)N[C@@H](Cc1c[nH]c2ccccc12)C(=O)N[C@@H](CC(C)C)C(N)=O)[C@@H](C)CC [SP-106] (Ac-FIDE[S5]VL[Nle][S5]LVIE[Nle]ALDRIKELPELWL-NH2; staple 5-9) | > 30 | –
CC[C@H](C)[C@H](NC(=O)[C@H](Cc1ccccc1)NC(C)=O)C(=O)N[C@@H](CC(=O)O)C(=O)N[C@@H](CCC(=O)O)C(=O)N[C@]1(C)CCCCCCC=CCCC[C@@](C)(C(=O)N[C@@H](CCC(=O)O)C(=O)N[C@@H](CCSC)C(=O)NCC(=O)N[C@@H](CC(C)C)C(=O)N[C@@H](CC(=O)O)C(=O)N[C@@H](CCCNC(=N)N)C(=O)N[C@H](C(=O)N[C@@H](CCCCN)C(=O)N[C@@H](CCC(=O)O)C(=O)N[C@@H](CC(C)C)C(=O)N2CCC[C@H]2C(=O)N[C@@H](CCC(=O)O)C(=O)N[C@@H](CC(C)C)C(=O)N[C@@H](Cc2c[nH]c3ccccc23)C(=O)N[C@@H](CC(C)C)C(N)=O)[C@@H](C)CC)NC(=O)[C@H](C(C)C)NC(=O)[C@H](CC(C)C)NC(=O)[C@H](CO)NC(=O)[C@H](CCSC)NC(=O)[C@H](CC(C)C)NC(=O)[C@H](C(C)C)NC1=O [SP-82] (Ac-FIDE[R8]VLMSLV[S5]EMGLDRIKELPELWL-NH2; staple 5-12) | > 30 | + (<10: +)
CCCC[C@H](NC(=O)[C@H](CC(C)C)NC(=O)[C@@H](NC(=O)[C@H](CCC(=O)O)NC(=O)[C@H](CCC(=O)O)NC(=O)[C@H](CC(=O)O)NC(=O)[C@@H](NC(=O)[C@H](Cc1ccccc1)NC(C)=O)[C@@H](C)CC)C(C)C)C(=O)N[C@@]1(C)CCCC=CCCC[C@@](C)(C(=O)N[C@@H](CCCC)C(=O)N[C@@H](C)C(=O)N[C@@H](CC(C)C)C(=O)N[C@@H](CC(=O)O)C(=O)N[C@@H](CO)C(=O)N[C@H](C(N)=O)[C@@H](C)CC)NC(=O)[C@H]([C@@H](C)CC)NC(=O)[C@H](C(C)C)NC(=O)[C@H](CC(C)C)NC1=O [SP-58] (Ac-FIDEEVL[Nle][S5]LVI[S5][Nle]ALDSI-NH2; staple 9-13) | > 30 | +++ (≤25 but <50: +++)
CC[C@H](C)[C@H](NC(=O)[C@H](CCCNC(=N)N)NC(=O)[C@H](CC(=O)O)NC(=O)[C@H](CC(C)C)NC(=O)[C@H](C)NC(=O)[C@H](C)NC(=O)[C@]1(C)CCCC=CCCC[C@](C)(NC(=O)[C@H](C)NC(=O)[C@H](CC(C)C)NC(=O)[C@@H](NC(=O)[C@H](CCC(=O)O)NC(=O)[C@H](CCC(=O)O)NC(=O)[C@H](CC(=O)O)NC(=O)[C@@H](NC(=O)[C@H](Cc2ccccc2)NC(C)=O)[C@@H](C)CC)C(C)C)C(=O)N[C@@H](CC(C)C)C(=O)N[C@@H](C(C)C)C(=O)N[C@@H]([C@@H](C)CC)C(=O)N1)C(N)=O [SP-26] (Ac-FIDEEVLA[S5]LVI[S5]AALDRI-NH2; staple 9-13) | 5 to 15 | ++++ (≥50: ++++)
